Measured values taken from patent US9149038B2, “4-amino-6-(heterocyclic)picolinates and 6-amino-2-(heterocyclic)pyrimidine-4-carboxylates and their use as herbicides” (Dow AgroSciences LLC, priority 2013, dated 2015).
Where two headings read alike, the source gives them in different places.

What was measured:
[1] = system: Key Broadleaf Weed and Crop Species; assay: Post-Emergent Test II: postemergent herbicidal activity, visual rating after 14 d (Table 7); type: in vivo; conditions: post-emergence, 336 h; for pest or weed control at 35 g/ha: 35 g ai/ha; for pest or weed control at 70 g/ha: 70 g ai/ha; for pest or weed control at 140 g/ha: 140 g ai/ha; for pest or weed control at 280 g/ha: 280 g ai/ha
Procedure, shortened: (§1)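 Scoring is visual, 0-100, at 14 d after application, comparing treated with untreated plants. Application: overhead track spray at 187 L/ha onto seedlings at 1-2 true leaves, in surfactant/crop-oil carrier.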

[2] = system: Key Grass and Sedge Weeds as well as Grass Crops; assay: Post-Emergent Test II: postemergent herbicidal activity, visual rating after 14 d (Table 8); type: in vivo; conditions: post-emergence, 336 h; for pest or weed control at 35 g/ha: 35 g ai/ha; for pest or weed control at 70 g/ha: 70 g ai/ha; for pest or weed control at 140 g/ha: 140 g ai/ha; for pest or weed control at 280 g/ha: 280 g ai/ha
Procedure, shortened: as §1

[3] = lambsquarters (Chenopodium album), read-out: Visual Growth Reduction (%) 14 Days After Application CHEAL
[4] = oilseed rape, canola (Brassica napus), read-out: Visual Growth Reduction (%) 14 Days After Application BRSNN
[5] = redroot pigweed (Amaranthus retroflexus), read-out: Visual Growth Reduction (%) 14 Days After Application AMARE
[6] = sunflower (Helianthus annuus), read-out: Visual Growth Reduction (%) 14 Days After Application HELAN
[7] = velvetleaf (Abutilon theophrasti), read-out: Visual Growth Reduction (%) 14 Days After Application ABUTH
[8] = wild poinsettia (Euphorbia heterophylla), read-out: Visual Growth Reduction (%) 14 Days After Application EPHHL
[9] = barnyardgrass (Echinochloa crus-galli), read-out: Visual Growth Reduction (%) 14 Days After Application ECHCG
[10] = giant foxtail (Setaria faberi), read-out: Visual Growth Reduction (%) 14 Days After Application SETFA
[11] = maize, corn (Zea mays), read-out: Visual Growth Reduction (%) 14 Days After Application ZEAMX
[12] = rice (Oryza sativa), read-out: Visual Growth Reduction (%) 14 Days After Application ORYSA
[13] = wheat, spring (Triticum aestivum), read-out: Visual Growth Reduction (%) 14 Days After Application TRZAS
[14] = yellow nutsedge (Cyperus esculentus), read-out: Visual Growth Reduction (%) 14 Days After Application CYPES

Nc1c(F)c(-c2cccc3c2OCO3)nc(C(=O)O)c1Cl [Compound 72, 4-Amino-6-(benzo[d][1,3]dioxol-4-yl)-3-chloro-5-fluoropicolinic acid]
75 to 84%: pest or weed control at 35 g/ha [1, 4] | pest or weed control at 35 g/ha [1, 7]
0 to 29%: pest or weed control at 35 g/ha [1, 8] | pest or weed control at 70 g/ha [1, 8] | pest or weed control at 140 g/ha [1, 8] | pest or weed control at 280 g/ha [1, 8] | pest or weed control at 35 g/ha [2, 9] | pest or weed control at 70 g/ha [2, 9] | pest or weed control at 140 g/ha [2, 9] | pest or weed control at 280 g/ha [2, 9] | pest or weed control at 35 g/ha [2, 10] | pest or weed control at 70 g/ha [2, 10] | pest or weed control at 140 g/ha [2, 10] | pest or weed control at 280 g/ha [2, 10] | pest or weed control at 35 g/ha [2, 11] | pest or weed control at 70 g/ha [2, 11] | pest or weed control at 140 g/ha [2, 11] | pest or weed control at 280 g/ha [2, 11] | pest or weed control at 35 g/ha [2, 12] | pest or weed control at 70 g/ha [2, 12] | pest or weed control at 140 g/ha [2, 12] | pest or weed control at 280 g/ha [2, 12] | pest or weed control at 35 g/ha [2, 13] | pest or weed control at 70 g/ha [2, 13] | pest or weed control at 140 g/ha [2, 13] | pest or weed control at 280 g/ha [2, 13] | pest or weed control at 35 g/ha [2, 14] | pest or weed control at 70 g/ha [2, 14] | pest or weed control at 140 g/ha [2, 14] | pest or weed control at 280 g/ha [2, 14]
95 to 100%: pest or weed control at 35 g/ha [1, 3] | pest or weed control at 70 g/ha [1, 3] | pest or weed control at 140 g/ha [1, 3] | pest or weed control at 280 g/ha [1, 3] | pest or weed control at 70 g/ha [1, 4] | pest or weed control at 140 g/ha [1, 4] | pest or weed control at 280 g/ha [1, 4] | pest or weed control at 35 g/ha [1, 5] | pest or weed control at 70 g/ha [1, 5] | pest or weed control at 140 g/ha [1, 5] | pest or weed control at 280 g/ha [1, 5] | pest or weed control at 35 g/ha [1, 6] | pest or weed control at 70 g/ha [1, 6] | pest or weed control at 140 g/ha [1, 6] | pest or weed control at 280 g/ha [1, 6] | pest or weed control at 70 g/ha [1, 7] | pest or weed control at 140 g/ha [1, 7] | pest or weed control at 280 g/ha [1, 7]
